For one data set, the system named is HuTu80. Put plainly: Antiproliferative activity against human HuTu80 cells assessed as cell growth inhibition measured after 72 hrs by SRB assay. Type of data set: functional, cell-based. Particulars: HuTu80, 72 h.
Data set [1] has as its target T1, Serine/threonine-protein kinase TAO1 (Homo sapiens) (UniProt Q7L7X3).
T1 sequence (whole entry): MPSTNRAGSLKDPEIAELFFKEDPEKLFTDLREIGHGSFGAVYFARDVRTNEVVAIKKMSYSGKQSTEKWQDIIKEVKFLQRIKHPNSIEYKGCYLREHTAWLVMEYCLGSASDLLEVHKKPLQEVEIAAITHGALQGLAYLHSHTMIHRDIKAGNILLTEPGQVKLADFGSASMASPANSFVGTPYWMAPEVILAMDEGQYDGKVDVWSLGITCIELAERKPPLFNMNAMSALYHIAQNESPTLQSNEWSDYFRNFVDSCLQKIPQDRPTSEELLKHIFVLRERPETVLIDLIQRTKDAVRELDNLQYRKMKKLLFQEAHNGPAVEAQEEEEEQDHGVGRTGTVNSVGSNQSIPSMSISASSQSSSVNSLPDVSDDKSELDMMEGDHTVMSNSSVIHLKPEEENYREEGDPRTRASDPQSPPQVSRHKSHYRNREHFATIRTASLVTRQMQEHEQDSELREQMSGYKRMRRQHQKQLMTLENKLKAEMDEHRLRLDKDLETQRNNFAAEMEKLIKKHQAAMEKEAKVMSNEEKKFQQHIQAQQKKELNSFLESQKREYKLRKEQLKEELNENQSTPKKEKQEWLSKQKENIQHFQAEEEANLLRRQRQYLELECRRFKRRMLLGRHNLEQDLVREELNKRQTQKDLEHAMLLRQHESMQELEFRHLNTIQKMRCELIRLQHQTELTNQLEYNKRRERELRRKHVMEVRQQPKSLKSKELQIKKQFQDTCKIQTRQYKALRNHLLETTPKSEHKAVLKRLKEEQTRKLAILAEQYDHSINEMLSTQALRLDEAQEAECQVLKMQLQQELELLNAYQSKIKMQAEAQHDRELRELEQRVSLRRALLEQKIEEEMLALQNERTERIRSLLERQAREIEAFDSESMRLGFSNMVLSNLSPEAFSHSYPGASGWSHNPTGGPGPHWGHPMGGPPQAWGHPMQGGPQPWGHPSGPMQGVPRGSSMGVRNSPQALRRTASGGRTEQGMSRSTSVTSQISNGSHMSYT
Put plainly: Inhibition of human partial length wild type TAOK1 by measuring selectivity score at 1 uM by Kinomescan method relative to control.

The test system of another data set is MV4-11. Nature of the data set: Antiproliferative activity against human MV4-11 cells assessed as cell growth inhibition measured after 72 hrs by SRB assay. The format is functional, cell-based. Particulars: MV4-11, 72 h.
In a further data set the test system is THP-1. Nature of the data set: Antiproliferative activity against human THP-1 cells assessed as cell growth inhibition measured after 72 hrs by SRB assay. Type of data set: functional, cell-based. Particulars: THP-1, 72 h.
Data set [2] has as its system HCT-116. Nature of the data set: Antiproliferative activity against human HCT-116 cells assessed as cell growth inhibition measured after 72 hrs by SRB assay. Type of data set: functional, cell-based. Particulars: HCT-116, 72 h.
A short description of data set [3]: Observed AUCinfinity in Sprague-Dawley rat at 1 mg/kg, iv. Type of data set: ADME, organism-based. More on the design: time infinity, dose 1 mg/kg, route iv. Particulars: in vivo.
Data set [4] can be described thus: Toxicity in nude mouse xenografted with human HCT-116 cells assessed as effect on body weight at 60 mg/kg, sc bid administered at 5 on/5 off/8 for 18 days. Type of data set: organism-based. Particulars: in vivo, 432 h, time 18 day. For orientation: Xenograft models place foreign cells or tissue in a host animal.
In the next data set the test system is LNCaP-Clone-FGC. Put plainly: Antiproliferative activity against human LNCaP-Clone-FGC cells assessed as cell growth inhibition measured after 72 hrs by SRB assay. The format is functional, cell-based. On the technique in general: In SRB staining, fixed cells bind dye roughly in proportion to their protein.
The target of data set [5] is T1, Serine/threonine-protein kinase TAO1 (Homo sapiens). Put plainly: Inhibition of human partial length wild type TAOK1 at 1 uM by Kinomescan method relative to control.
Data set [6] can be described thus: Inhibition of UAE (unknown origin) […] assessed as decrease in UbcH10-Ub adduct formation incubated for 2 hrs in presence of L-glutathione and ATP by HTRF assay. More on the design: species or system Homo sapiens.
The test system of data set [7] is HCT-116. Put plainly: Antitumor activity against human HCT-116 cells xenografted in nude mouse assessed as reduction in tumor growth at 60 mg/kg, sc bid administered at 5 on/5 off/8 for 18 days. Type of data set: functional. Particulars: time 18 day.
The next data set relates to HT-29. Put plainly: Antiproliferative activity against human HT-29 cells assessed as cell growth inhibition measured after 72 hrs by SRB assay. Type of data set: functional, cell-based. Particulars: HT-29, 72 h.
For a further data set, the system named is RKO. Nature of the data set: Antiproliferative activity against human RKO cells assessed as cell growth inhibition measured after 72 hrs by SRB assay. Type of data set: functional, cell-based.
A further data set deals with DU-145. Put plainly: Antiproliferative activity against human DU-145 cells assessed as cell growth inhibition measured after 72 hrs by SRB assay. The format is functional, cell-based. Particulars: DU-145, 72 h.
Data set [8] is described as follows: Clearance in Sprague-Dawley rat at 1 mg/kg, iv. Particulars: in vivo. Type of data set: ADME, organism-based.
In data set [9] the target is Voltage-gated inwardly rectifying potassium channel KCNH2 (Homo sapiens, UniProt Q12809). Put plainly: Inhibition of hERG channel. The format is toxicity. For orientation: hERG is a cardiac potassium channel; its block is linked to QT prolongation.
For the next data set, the system named is CAPAN-1. Put plainly: Antiproliferative activity against human CAPAN-1 cells assessed as cell growth inhibition measured after 72 hrs by SRB assay. The format is functional, cell-based. Particulars: CAPAN-1, 72 h.
The nature of data set [10]: Observed MRTinfinity in Sprague-Dawley rat at 1 mg/kg, iv. The format is ADME, organism-based. Particulars: in vivo.
The test system of data set [11] is HCT-116. Nature of the data set: Antiproliferative activity against human HCT-116 cells assessed as cell growth inhibition by sulforhodamine B assay. Type of data set: functional, cell-based.
For a further data set, the system named is Jurkat. Put plainly: Antiproliferative activity against human Jurkat cells assessed as cell growth inhibition measured after 72 hrs by SRB assay. Type of data set: functional, cell-based.
A short description of data set [12]: AUClast in Sprague-Dawley rat at 1 mg/kg, iv. The format is ADME, organism-based. More on the design: time 0 - last, dose 1 mg/kg, route iv. Particulars: in vivo.
Data set [13] can be described thus: Half life in Sprague-Dawley rat at 1 mg/kg, iv. The format is ADME, organism-based. Particulars: in vivo.
Data set [14] in a line: Volume of distribution at steady state in Sprague-Dawley rat at 1 mg/kg, iv. Type of data set: ADME, organism-based. Particulars: in vivo, read-out: Vdss.

Chain of Voltage-gated inwardly rectifying potassium channel KCNH2 (Q12809 whole entry): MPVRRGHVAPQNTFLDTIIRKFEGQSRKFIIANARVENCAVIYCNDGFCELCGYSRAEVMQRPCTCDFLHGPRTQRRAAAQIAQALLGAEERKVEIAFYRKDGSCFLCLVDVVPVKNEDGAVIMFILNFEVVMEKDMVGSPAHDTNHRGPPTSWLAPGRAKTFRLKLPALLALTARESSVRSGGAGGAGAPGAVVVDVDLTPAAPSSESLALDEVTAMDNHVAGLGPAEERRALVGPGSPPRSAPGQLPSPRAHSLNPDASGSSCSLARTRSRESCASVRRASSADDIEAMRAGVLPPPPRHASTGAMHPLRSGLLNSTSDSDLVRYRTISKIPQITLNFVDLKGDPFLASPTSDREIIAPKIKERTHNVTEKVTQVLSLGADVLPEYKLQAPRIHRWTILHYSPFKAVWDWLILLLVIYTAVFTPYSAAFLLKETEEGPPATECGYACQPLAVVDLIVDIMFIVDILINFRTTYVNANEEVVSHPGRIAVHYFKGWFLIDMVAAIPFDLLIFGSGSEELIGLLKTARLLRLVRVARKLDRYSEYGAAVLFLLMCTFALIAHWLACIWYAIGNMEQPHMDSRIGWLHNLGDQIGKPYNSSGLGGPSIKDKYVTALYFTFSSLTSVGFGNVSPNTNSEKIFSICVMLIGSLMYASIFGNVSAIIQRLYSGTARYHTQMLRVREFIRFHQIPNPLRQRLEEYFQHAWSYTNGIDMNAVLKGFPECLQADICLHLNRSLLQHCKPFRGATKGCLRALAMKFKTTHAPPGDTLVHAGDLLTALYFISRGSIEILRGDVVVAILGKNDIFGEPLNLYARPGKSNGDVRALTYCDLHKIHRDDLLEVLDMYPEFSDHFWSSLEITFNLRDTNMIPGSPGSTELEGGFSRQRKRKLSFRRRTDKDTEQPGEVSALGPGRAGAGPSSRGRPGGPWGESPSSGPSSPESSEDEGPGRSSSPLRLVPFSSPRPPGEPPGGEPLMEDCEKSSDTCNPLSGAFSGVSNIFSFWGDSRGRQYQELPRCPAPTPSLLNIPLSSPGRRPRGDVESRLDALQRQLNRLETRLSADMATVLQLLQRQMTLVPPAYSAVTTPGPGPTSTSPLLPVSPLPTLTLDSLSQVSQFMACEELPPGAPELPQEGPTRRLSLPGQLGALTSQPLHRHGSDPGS

Consider `NS(=O)(=O)OC[C@@H]1C[C@@H](n2ccc3c(N[C@H]4CCc5ccccc54)ncnc32)C[C@@H]1O` [PEVONEDISTAT], for which the IC50 (usually the concentration at which inhibition is half-maximal) is 42.6 nM in the data set with HuTu80; 107 nM in the data set on MV4-11; 115 nM in the data set on THP-1; 36.2 nM in the data set with HCT-116 [2]; 64.6 nM in the data set with LNCaP-Clone-FGC; 3.72 nM in data set [6]. Besides, the IC50 in the data set on HT-29 was 484 nM; in the data set on RKO, 166 nM; in the data set with DU-145, 201 nM; in [9], > 40000 nM; in the data set with CAPAN-1, 101 nM; in the data set with HCT-116 [11], 33.9 nM. In addition, in the data set on Jurkat, the IC50 was found to be 152 nM. For the same compound, the Activity was 0.002 in data set [1] and “Non-Toxic” in data set [4]. In addition, the area under the curve AUC(0-inf) (as a rule, the area under the concentration-time curve extrapolated to infinity) in data set [3] was 1340 ng·h/mL. Further, the inhibition – broadly, the relative decrease from the control value, in per cent – in data set [5] was found to be 35%. The T/C with HCT-116 [7] is 0.1. Also, the clearance – broadly, the volume of plasma or blood freed of the substance per unit of time – in [8] turned out to be 16.5 mL/min/kg. Also, the MRT inf – broadly, a mean duration of stay, worked out from the concentration-time curve – in [10] worked out at 1.9 h. Besides, in data set [12], the AUC(0-t) – broadly, exposure summed from dosing to a finite time, without extrapolation to infinity – stood at 1330 ng·h/mL. Besides, the half-life – broadly, how long it takes for the measured level to halve – in data set [13] is 1.36 h. Moreover, the Vd in data set [14] was 1.63 L/kg.

For the origin of these results see ChEMBL document CHEMBL5149982, “Development of Potent NEDD8-Activating Enzyme Inhibitors Bearing a Pyrimidotriazole Scaffold” (J Med Chem, 2021).
